Each block holds one compound with its values, some of them ahead of it. Where a SMILES comes first, the peptide text is derived from it. The star is where a group is joined. For = O=C*
Legend:
[1] = biological target: T1, N-formyl peptide receptor 2 (Homo sapiens, UniProt P25090); test: Agonist activity at FPR2 (unknown origin) transfected in CHO cells assessed as increase in calcium mobilization by Fluo-4AM dye based assay; assay type: functional, cell-based
T1 sequence (P25090 whole entry): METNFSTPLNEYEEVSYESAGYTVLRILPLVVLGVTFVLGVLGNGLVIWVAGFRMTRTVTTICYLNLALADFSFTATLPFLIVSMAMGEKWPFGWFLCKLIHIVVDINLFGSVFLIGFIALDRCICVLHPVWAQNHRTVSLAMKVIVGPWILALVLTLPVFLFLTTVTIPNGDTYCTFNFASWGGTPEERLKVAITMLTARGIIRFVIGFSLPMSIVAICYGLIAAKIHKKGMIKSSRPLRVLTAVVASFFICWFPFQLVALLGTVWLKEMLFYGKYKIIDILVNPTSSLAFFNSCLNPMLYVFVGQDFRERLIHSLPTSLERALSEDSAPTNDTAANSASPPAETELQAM

fMet-Leu-Phe receptor [2] = biological target: T2, fMet-Leu-Phe receptor (Homo sapiens, UniProt P21462); test: Agonist activity at FPR1 (unknown origin) transfected in CHO cells assessed as increase in calcium mobilization by Fluo-4AM dye based assay; assay type: functional, cell-based
T2 sequence (P21462 whole entry): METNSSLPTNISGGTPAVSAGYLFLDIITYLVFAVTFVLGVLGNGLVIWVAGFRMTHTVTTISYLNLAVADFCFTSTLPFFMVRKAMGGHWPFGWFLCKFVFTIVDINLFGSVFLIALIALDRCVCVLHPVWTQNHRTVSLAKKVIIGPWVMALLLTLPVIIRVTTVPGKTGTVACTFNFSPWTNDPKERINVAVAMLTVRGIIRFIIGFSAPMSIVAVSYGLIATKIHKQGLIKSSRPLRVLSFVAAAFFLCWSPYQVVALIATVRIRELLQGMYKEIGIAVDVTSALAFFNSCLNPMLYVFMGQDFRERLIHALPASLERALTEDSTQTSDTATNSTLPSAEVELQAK

[3] = Half life in rat liver microsomes measured upto 60 mins by LC-MS/MS analysis; assay type: ADME, Microsome; details: 1 h
[4] = Intrinsic clearance in rat liver microsomes; assay type: ADME, Microsome
fMet-Leu-Phe receptor [5] = biological target: T2, fMet-Leu-Phe receptor; test: Agonist activity at FPR1 (unknown origin) transfected in CHO cells by cAMP assay; assay type: functional, cell-based
[6] = biological target: T1, N-formyl peptide receptor 2; test: Agonist activity at FPR2 (unknown origin) transfected in CHO cells by cAMP assay; assay type: functional, cell-based
[7] = Permeability of compound in PBS buffer at pH 5.5 by UPLC-MS spectrometry based PAMPA assay; assay type: ADME; details: read-out: permeability
[8] = biological target: T3, Formyl peptide receptor 2 (Mus musculus, UniProt O88536); test: Agonist activity at mouse FPR2
T3 sequence (O88536 whole entry): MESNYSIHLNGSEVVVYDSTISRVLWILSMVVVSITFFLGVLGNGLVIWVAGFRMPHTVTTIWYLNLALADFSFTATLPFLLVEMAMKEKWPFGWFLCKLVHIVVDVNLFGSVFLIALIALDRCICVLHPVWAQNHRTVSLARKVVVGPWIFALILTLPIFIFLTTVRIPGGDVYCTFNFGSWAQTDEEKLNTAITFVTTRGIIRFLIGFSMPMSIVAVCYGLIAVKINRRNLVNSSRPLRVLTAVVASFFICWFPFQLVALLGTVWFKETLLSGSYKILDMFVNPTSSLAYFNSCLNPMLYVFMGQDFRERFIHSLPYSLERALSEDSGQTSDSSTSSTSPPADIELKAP

[9] = biological target: T1, N-formyl peptide receptor 2; test: Agonist activity at human FPR2; assay type: functional
fMet-Leu-Phe receptor [10] = biological target: T4, fMet-Leu-Phe receptor (Mus musculus, UniProt P33766); test: Agonist activity at mouse FPR1; assay type: functional
T4 sequence (P33766 whole entry): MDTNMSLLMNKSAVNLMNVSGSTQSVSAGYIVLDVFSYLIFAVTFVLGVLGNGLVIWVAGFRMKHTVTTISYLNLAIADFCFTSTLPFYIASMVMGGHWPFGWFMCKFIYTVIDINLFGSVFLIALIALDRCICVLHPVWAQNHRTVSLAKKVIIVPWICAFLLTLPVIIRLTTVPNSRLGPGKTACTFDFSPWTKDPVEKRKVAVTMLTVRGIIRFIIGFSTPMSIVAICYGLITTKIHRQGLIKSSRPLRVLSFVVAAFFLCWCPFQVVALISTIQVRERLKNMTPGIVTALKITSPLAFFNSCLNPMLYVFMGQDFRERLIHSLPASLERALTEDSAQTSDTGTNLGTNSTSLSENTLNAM

fMet-Leu-Phe receptor [11] = biological target: T2, fMet-Leu-Phe receptor; test: Agonist activity at human FPR1; assay type: functional
[12] = Metabolic stability in rat liver microsomes assessed as compound remaining after 30 mins incubation; assay type: ADME, Microsome; details: read-out: Stability
fMet-Leu-Phe receptor [13] = biological target: T2, fMet-Leu-Phe receptor; test: Agonist activity at FPR1 (unknown origin) transfected in human HL60 cells assessed as calcium mobilization incubated for 30 mins and measured for 15 mins by fluorometry method; assay type: functional, cell-based, HL-60
[14] = biological target: T1, N-formyl peptide receptor 2; test: Agonist activity at FPR2 (unknown origin) expressed in CHO cells assessed as Calcium mobilization incubated for 30 min by fluorometry method; assay type: functional, cell-based
[15] = Oral bioavailability in human at 1 mg/kg; assay type: ADME, organism-based; details: in vivo
[16] = biological target: T1, N-formyl peptide receptor 2; test: Agonist activity at FPR2 (unknown origin) in HEK293 cells; assay type: functional, cell-based
fMet-Leu-Phe receptor [17] = biological target: T2, fMet-Leu-Phe receptor; test: Agonist activity against human FPR1 expressed in HL-60 cells by Fluo4-AM dye based intracellular calcium flux assay; assay type: functional, cell-based
[18] = biological target: T1, N-formyl peptide receptor 2; test: Agonist activity at human FPR2 expressed in HL-60 cells by Fluo4-AM dye based intracellular calcium flux assay; assay type: functional, cell-based
[19] = biological target: T1, N-formyl peptide receptor 2; test: Binding affinity to human FPR2 expressed in CHO cells assessed as dissociation constant; assay type: cell-based
fMet-Leu-Phe receptor [20] = biological target: T4, fMet-Leu-Phe receptor; test: Binding affinity to mouse FPR1 expressed in CHO cells assessed as dissociation constant; assay type: cell-based

EC50 [1]: 600 nM
EC50 (fMet-Leu-Phe receptor [2]): 2300 nM
Compound: CC(C)C[C@H](NC(=O)CNC(=O)Nc1ccc(Br)cc1)C(=O)OC(C)(C)C

t1/2 [3]: 48 min
CLH [4]: 15 µL/min/mg
Compound: N#Cc1ccc(C[C@H](NC(=O)Nc2ccc(F)cc2)C(=O)NCC2(c3ccc(F)c(Cl)c3)CC2)cc1

EC50 (fMet-Leu-Phe receptor [5]): 2200 nM
EC50 [6]: 280 nM
Compound: O=C(Nc1ccc(Br)cc1)[C@@H]1C2CCC([C@@H]1C(=O)O)C21CC1 (stereo partly drawn)

remaining at 0.5 h [12]: 20%
Compound: N#Cc1ccc(C[C@@H](NC(=O)Nc2ccc(F)cc2)C(=O)NCC2(c3ccc(F)c(Cl)c3)CC2)cc1

bioavailability [15]: 12%
EC50 [16]: 2 nM
Compound: O=C(NCc1ccc(Br)cc1F)[C@@H]1C2CCC([C@H]1C(=O)NC1CCNCC1F)C21CC1 (stereo partly drawn)

EC50 (fMet-Leu-Phe receptor [17]): > 50000 nM
EC50 [18]: > 50000 nM
Compound: COc1cccc(Cc2cc(C)nn(CC(=S)Nc3ccccc3)c2=O)c1

Second part, the compound before the results:

Compound: COc1cc(F)c([C@@H]2CNC(=O)[C@H]2Nc2cc(-c3ccc(Cl)cc3)no2)c(F)c1
Papp [7]: 110 ×10⁻⁶ cm/s
EC50 (fMet-Leu-Phe receptor [5]): 470 nM
EC50 [6]: 10 nM

Compound: CC[C@H](C)[C@H](NC(=O)[C@@H](NC(=O)[C@H](Cc1ccccc1)NC(=O)[C@H](CC(C)C)NC(=O)[C@H](CCSC)NC=O)[C@@H](C)CC)C(=O)O (For-MLFII-OH)
EC50 [8]: 910 nM
EC50 [9]: 3.8 nM
EC50 (fMet-Leu-Phe receptor [10]): 0.03 nM
EC50 (fMet-Leu-Phe receptor [11]): 1400 nM

Compound: Ac-AMVSEFLKQAWIENEEQEYVVQTVK-OH
EC50 (fMet-Leu-Phe receptor [13]): 1400 nM
EC50 [14]: 1800 nM

Compound: O=C(NCc1ccc(Br)cc1F)[C@@H]1C2CCC([C@H]1C(=O)NC1CCNCC1)C21CC1 (stereo partly drawn)
bioavailability [15]: 0.3%

Compound: CCCCC[C@H](O)[C@H](O)/C=C/C=C/C=C\C=C\[C@@H](O)CCCC(=O)O
Kd [19]: 1.7 nM
Kd (fMet-Leu-Phe receptor [20]): 1.5 nM

From ChEMBL document CHEMBL5523682, “The formyl peptide receptors FPR1 and FPR2 as targets for inflammatory disorders: recent advances in the development of small-molecule agonists” (Eur J Med Chem, 2024)
